Strand notation (5' to 3'): a small letter for the sugar, then the base; units joined by * are phosphorothioate-linked, units joined directly phosphodiester-linked; [ ] holds rarer units or linkages, { } end groups; capitals alone tell only the bases. e = 2'-O-(2-methoxyethyl) (MOE); [5mC] = 5-methylcytosine; d = 2'-deoxy (DNA)
Columns and labels:
[1] = system: DBA/1LacJ mice with collagen-induced arthritis; experiment: Collagen-induced arthritis (CIA) murine model; type: in vivo, mouse; details: CIA in DBA/1LacJ mice; for % Incidence: 10 mg/kg intraperitoneally daily from day -3, control 70%; for Peak day (day from onset of maximum swelling for each joint measure) / Severity (total clinical score divided by the total number of mice in the group): 10 mg/kg intraperitoneally daily; for Peak day (day from onset of maximum swelling for each joint measure): control 6.7 ± 2.9; for Severity (total clinical score divided by the total number of mice in the group): limbs graded 0-4, control 3.2 ± 1.1
Procedure: Collagen-induced arthritis (CIA) was used as a murine model for arthritis (Mussener, A., et al., Clin. Exp. Immunol., 1997, 107, 485-493). Female DBA/1LacJ mice (Jackson Laboratories, Bar Harbor, Me.) between the ages of 6 and 8 weeks were used to assess the activity of B7-1 antisense oligonucleotides.
On day 0, the mice were immunized at the base of the tail with 100 μg of bovine type II collagen which is emulsified in Complete Freund's Adjuvant (CFA). On day 7, a second booster dose of collagen was administered by the same route. On day 14, the mice were injected subcutaneously with 100 μg of LPS. Oligonucleotide was administered intraperitoneally daily (10 mg/kg bolus) starting on day −3 (three days before day 0) and continuing for the duration of the study. Oligonucleotide 17456 (SEQ ID NO. 173) is a fully phosphorothioated analog of 18122.
Weights were recorded weekly. Mice were inspected daily for the onset of CIA. Paw widths are rear ankle widths of affected and unaffected joints were measured three times a week using a constant tension caliper. Limbs were clinically evaluated and graded on a scale from 0-4 (with 4 being the highest).

murine B7-1 = experiment: Murine B7-1 cell surface expression in transfected COS-7 cells by flow cytometry; type: cell-based; details: mouse B7-1 cell surface expression, basal = 100%
From the text: (§1) Oligonucleotides (see Table 4) capable of inhibiting expression of murine B7-2 transiently expressed in COS-7 cells were identified in the following manner. A series of phosphorothioate oligonucleotides complementary to murine B7-2 (mB7-2) cDNA were screened for their ability to reduce mB7-2 levels (measured by flow cytometry as in Example 2, except that a conjugated anti-mB7-2 antibody (i.e., anti-mCD86-PE, PharMingen, San Diego, Calif.) in COS-7 cells transfected with an mB7-2 cDNA clone. Anti-mB7-2 antibody may also be obtained from the hybridoma deposited at the ATCC under accession No. HB-253. Oligonucleotides (see Table 2) capable of modulating murine B7-1 expression are isolated in like fashion, except that a conjugated anti-mB7-1 antibody is used in conjunction with COS-7 cells transfected with an mB7-1 cDNA clone.
(§2) B7 antisense oligonucleotides were tested for their effect on cell surface expression of both B7-1 and B7-2. Cell surface expression was measured as described in Example 1. Experiments were done for both human B7 and mouse B7.

murine B7-2 (mB7-2) [2] = experiment: Murine B7-2 cell surface expression in transfected COS-7 cells by flow cytometry; type: cell-based, mouse; details: for % B7-2 EXPRESSION: mouse B7-2 cell surface expression
From the text: as §1, §2

Mouse B7-2 mRNA = Mouse B7-2 mRNA expression, screened as in Example 4; type: cell-based; design: % mRNA INHIBITION: concentration or dose not given beside the values; details: for % mRNA INHIBITION: screened as in Example 4; for % mRNA EXPRESSION: screened as in Example 4, basal = 100.0%
Procedure: For ribonuclease protection assays, cells were harvested 18 hours after completion of oligonucleotide treatment using a Totally RNA™ kit (Ambion, Austin, Tex.). The probes for the assay were generated from plasmids pcB7-2 (linearized by digestion with Bgl II) and pTRI-b-actin (Ambion Inc., Austin, Tex.). In vitro transcription of the linearized plasmid from the SP6 promoter was performed in the presence of α-^32P-UTP (800 Ci/mmole) yielding an antisense RNA complementary to the 3′ end of B7-2 (position 1044-1391). The probe was gel-purified after treatment with DNase I to remove DNA template. Ribonuclease protection assays were carried out using an RPA II™ kit (Ambion) according to the manufacturer's directions. Total RNA (5 μg) was hybridized overnight, at 42° C., with 10^5 cpm of the B7-2 probe or a control beta-actin probe. The hybridization reaction was then treated, at 37° C. for 30 minutes, with 0.4 units of RNase A and 2 units of RNase T1. Protected RNA was precipitated, resuspended in 10 μL of gel loading buffer and electrophoresed on a 6% acrylamide gel with 50% w/v urea at 20 W. The gel was then exposed and the lanes quantitated using a PhosphorImager (Molecular Dynamics, Sunnyvale, Calif.) essentially according to the manufacturer's instructions.
Oligonucleotides were screened as described in Example 4.

Mouse B7-1 mRNA = Mouse B7-1 mRNA expression, screened as in Example 4; type: cell-based; design: % mRNA INHIBITION: concentration or dose not given beside the values; details: Table 10
murine B7-2 (mB7-2) [3] = experiment: mB7-2 cell surface expression in LPS-induced IC-21 cells by flow cytometry; type: cell-based, mouse; details: FIG. 9; for levels of induced mB7-2 expression: 3 μM; for reduction in the level of induced mB7-2 expression: 10 μM
Procedure: In order to further evaluate the murine B7-2 antisense oligonucleotides, the IC-21 cell line was used. IC-21 monocyte/macrophage cell line expresses both B7-1 and murine B7-2 (mB7-2) constitutively. A 2-fold induction of expression can be achieved by incubating the cells in the presence of lipopolysaccharide (LPS; GIBCO-BRL, Gaithersburg, Md.) (Hathcock et al., Science, 1993, 262, 905).
IC-21 cells (ATCC; accession No. TIB 186) were seeded at 80% confluency in 12-well plates in DMEM media with 10% FCS. The cells were allowed to adhere to the plate overnight. The following day, the medium was removed and the cells were washed with PBS. Then 500 μL of OptiMEM™ (GIBCO-BRL, Gaithersburg, Md.) supplemented with 15 μg/mL of Lipofectin™ (GIBCO-BRL, Gaithersburg, Md.) was added to each well. Oligonucleotides were then added directly to the medium at the indicated concentrations. After incubation for 4 hours, the cells were washed with PBS and incubated overnight in culture medium supplemented with 15 μg/mL of LPS. The following day, cells were harvested by scraping, then analyzed for cell surface expression by flow cytometry.

[4] = system: BALB/c mice with heart allograft; experiment: Murine heart allograft rejection model; type: in vivo, mouse
Procedure: A murine model for evaluating compounds for their ability to inhibit heart allograft rejection has been previously described (Stepkowski et al., J. Immunol., 1994, 153, 5336). This model was used to evaluate the immunosuppressive capacity of antisense oligonucleotides to B7 proteins alone or in combination with antisense oligonucleotides to intercellular adhesion molecule-1 (ICAM-1).
Heart allograft rejection studies and oligonucleotide treatments of BALB/c mice were performed essentially as previously described (Stepkowski et al., J. Immunol., 1994, 153, 5336). Antisense oligonucleotides used included ISIS 11696, ISIS 3082 (targeted to ICAM-1) and ISIS 1082 (a control oligonucleotide targeted to the herpes virus UL-13 gene sequence). Dosages used were 1, 2, 2.5, 5 or 10 mg/kg of individual oligonucleotide (as indicated below); when combinations of oligonucleotides were administered, each oligonucleotide was given at a dosage of 1, 5 or 10 mg/kg (total oligonucleotide dosages of 2, 10 and 20 mg/kg, respectively). The survival times of the transplanted hearts and their hosts were monitored and recorded.

11696 (antisense dG*dG*dA*dT*dT*dG*dC*dC*dA*dA*dG*dC*dC*dC*dA*dT*dG*dG*dT*dG) [compound 11696]
% Incidence [1]: 37.5% | Peak day (day from onset of maximum swelling for each joint measure) [1]: 11.6 ± 4.5 days | Severity (total clinical score divided by the total number of mice in the group) [1]: 3.4 ± 1.8

18089 (antisense eG*eT*e[5mC]*eA*eA*dA*dG*d[5mC]*dT*d[5mC]*dG*dT*dG*d[5mC]*dG*eG*e[5mC]*e[5mC]*e[5mC]*eA) [compound 18089]
% B7-1 EXPRESSION (murine B7-1): 85% | % Incidence [1]: 44.4% | Peak day (day from onset of maximum swelling for each joint measure) [1]: 6.8 ± 2.2 days | Severity (total clinical score divided by the total number of mice in the group) [1]: 2.3 ± 1.3 | % B7-2 EXPRESSION (murine B7-2 (mB7-2) [2]): 36% | % mRNA INHIBITION (Mouse B7-2 mRNA): 79.1% | % mRNA EXPRESSION (Mouse B7-2 mRNA): 20.9%

18097 (antisense eT*eG*e[5mC]*e[5mC]*eA*dA*dG*d[5mC]*d[5mC]*d[5mC]*dA*dT*dG*dG*dT*eG*e[5mC]*eA*eT*e[5mC]) [compound 18097]
% B7-1 EXPRESSION (murine B7-1): 87% | % B7-2 EXPRESSION (murine B7-2 (mB7-2) [2]): 28% | % mRNA INHIBITION (Mouse B7-2 mRNA): 75.5% | % mRNA EXPRESSION (Mouse B7-2 mRNA): 24.5%

18110 (antisense eA*eT*eG*eA*eG*dG*dA*dG*dA*dG*dT*dT*dG*dT*dA*eA*e[5mC]*eG*eG*e[5mC]) [compound 18110]
% mRNA EXPRESSION (Mouse B7-1 mRNA): 21.0% | % mRNA INHIBITION (Mouse B7-1 mRNA): 79.0% | % B7-1 EXPRESSION (murine B7-1): 31% | % Incidence [1]: 55.6% | Peak day (day from onset of maximum swelling for each joint measure) [1]: 2.0 ± 0.8 days | Severity (total clinical score divided by the total number of mice in the group) [1]: 2.0 ± 1.3 | % B7-2 EXPRESSION (murine B7-2 (mB7-2) [2]): 93%

18113 (antisense eG*eT*eG*eA*eA*dG*dT*d[5mC]*d[5mC]*dT*d[5mC]*dT*dG*dA*d[5mC]*eA*e[5mC]*eG*eT*eG) [compound 18113]
% mRNA EXPRESSION (Mouse B7-1 mRNA): 24.6% | % mRNA INHIBITION (Mouse B7-1 mRNA): 75.4% | % B7-1 EXPRESSION (murine B7-1): 25% | % B7-2 EXPRESSION (murine B7-2 (mB7-2) [2]): 91%

18119 (antisense eG*eT*eT*eA*eA*d[5mC]*dT*d[5mC]*dT*dA*dT*d[5mC]*dT*dT*dG*eT*eG*eT*e[5mC]*eA) [compound 18119]
% mRNA EXPRESSION (Mouse B7-1 mRNA): 24.0% | % mRNA INHIBITION (Mouse B7-1 mRNA): 76.0% | % B7-1 EXPRESSION (murine B7-1): 27% | % B7-2 EXPRESSION (murine B7-2 (mB7-2) [2]): 98%

18123 (antisense eA*eA*e[5mC]*eG*eG*d[5mC]*dA*dA*dG*dG*d[5mC]*dA*dG*d[5mC]*dA*eA*eT*eA*e[5mC]*e[5mC]) [compound 18123]
% mRNA EXPRESSION (Mouse B7-1 mRNA): 42.0% | % mRNA INHIBITION (Mouse B7-1 mRNA): 58.0%

CTA-AGT-AGT-GCT-AGC-CGG-GA (antisense CTAAGTAGTGCTAGCCGGGA; listed as DNA, chemistry not given here) [ISIS 11866, scrambled # 11696, reference compound]
inhibition of murine B7-2 cell surface expression (murine B7-2 (mB7-2) [2]; highest concentration tested (1000 nM)): less than 20% | levels of induced mB7-2 expression (murine B7-2 (mB7-2) [3]): little effect | reduction in the level of induced mB7-2 expression (murine B7-2 (mB7-2) [3]): 40%

GGA-TTG-CCA-AGC-CCA-TGG-TG (GGATTGCCAAGCCCATGGTG; chemistry not given here) [ISIS 11696]
IC50 (murine B7-2 (mB7-2) [2]; COS-7 cells, FIG. 8): 200 to 300 nM | mean survival time ([4]; 2 mg/kg/day for 7 days): 9.3 ± 0.6 days | mean survival time ([4]; 10 mg/kg/day for 7 days): 9.3 ± 1.3 days | levels of induced mB7-2 expression (murine B7-2 (mB7-2) [3]): greatly reduced | reduction in the level of induced mB7-2 expression (murine B7-2 (mB7-2) [3]): inhibited mB7-2 expression completely

ISIS 1082: control oligonucleotide targeted to the herpes virus UL-13 gene sequence; SEQ ID NO: 102 (125) (antisense GCCGAGGTCCATGTCGTACGC; listed as DNA, chemistry not given here)
mean survival time ([4]; 5 mg/kg/day for 7 days): 7.1 ± 0.7 days | mean survival time ([4]; 10 mg/kg/day for 7 days): 7.0 ± 0.8 days

ISIS 3082: ICAM-1 oligonucleotide, previously described (Stepkowski et al.); SEQ ID NO: 101 (antisense TGCATCCCCCAGGCCACCAT; listed as DNA, chemistry not given here)
mean survival time ([4]; 1 mg/kg/day for 7 days): 11.0 ± 0.0 days | mean survival time ([4]; 2.5 mg/kg/day for 7 days): 12.0 ± 2.7 days | mean survival time ([4]; 5 mg/kg/day for 7 days): 14.1 ± 2.7 days | mean survival time ([4]; 10 mg/kg/day for 7 days): 15.3 ± 5.8 days

Source: patent US7897582B2, “Oligonucleotide compositions and methods for the modulation of the expression of B7 protein” (Isis Pharmaceuticals, Inc., priority 2003, dated 2011)
